Read-outs that look alike come from different tables or passages of the source.
How the values were obtained:
NGP = experiment: IncuCyte live-cell imaging, antiproliferative effect; type: cell-based; details: Homo sapiens, 72 h
Text: (§1) Human neuroblastoma cell lines NGP, IMR-32, SJNB-8, SK-N-BE(2)-C, SJNB-1, SK-N-SH and SK-N-AS, as well as benign immortalized cell lines RPE and HEK293T were either bought commercially or obtained through research laboratories. […] Screening for mycoplasma contamination occurred routinely on the cells. Human neuroblastoma cell lines SH-SY5Y_shABCB1 & SH-SY5Y_shNTC were generated by transduction with pLKO.1-ABCB1_TRCN0000059683 shRNA (Sigma MISSION SHCLND) or pLKO.1-puro NT shRNA (Sigma MISSION SHC002) vectors respectively (Supplementary Table S6), packaged using Lenti-X293T (Clontech). Transduced cells were selected with 2 μg/mL puromycin. These cells were cultured in DMEM 4.5 g/L D-Glucose, L-Glutamine and 110 mg/L Sodium Pyruvate (Gibco, #11995065) supplemented with 10% fetal bovine serum, 1× Antibiotic-Antimycotic solution (Sigma-Aldrich, #A5955) and 1× MEM nonessential amino acids (Sigma-Aldrich, #M7145). Incubation of all cells occurred at 37 °C and 5% CO2.
(§2) Neuroblastoma cells were seeded in 384-well plates at different densities ranging from 1200 to 5000 cells/well and allowed to adhere overnight. RPE and HEK293T were seeded at 200 and 600 cells/well, respectively. Compound treatment was performed using the D300e Digital Dispenser (Tecan) in duplicate or triplicate and cell confluency was monitored over time using the IncuCyte Live-cell imaging system (Sartorius). […] Mean normalized confluences were calculated from 3 individual experiments.
(§3) All dose–response curves were computed on GraphPad Prism using the Variable Slope (four parameters) equation. Absolute half-maximal degradation (DC50), growth inhibitory (GI50) and enzymatic inhibitory (IC50) concentrations, as well as inhibition constants (Ki) were derived from dose–response curves via interpolation. Statistical tests were performed on GraphPad Prism and detailed in the figure legends. Unless otherwise stated, “n” in the figure legends indicates the number of independent experiments conducted at different times.

CRBN = molecular target: T1, CRBN (Homo sapiens, UniProt Q96SW2); experiment: CRBN binding assay (E3scan, Eurofins Discovery)
T1 construct: purchased Eurofins Discovery
T1 sequence (Q96SW2 whole entry): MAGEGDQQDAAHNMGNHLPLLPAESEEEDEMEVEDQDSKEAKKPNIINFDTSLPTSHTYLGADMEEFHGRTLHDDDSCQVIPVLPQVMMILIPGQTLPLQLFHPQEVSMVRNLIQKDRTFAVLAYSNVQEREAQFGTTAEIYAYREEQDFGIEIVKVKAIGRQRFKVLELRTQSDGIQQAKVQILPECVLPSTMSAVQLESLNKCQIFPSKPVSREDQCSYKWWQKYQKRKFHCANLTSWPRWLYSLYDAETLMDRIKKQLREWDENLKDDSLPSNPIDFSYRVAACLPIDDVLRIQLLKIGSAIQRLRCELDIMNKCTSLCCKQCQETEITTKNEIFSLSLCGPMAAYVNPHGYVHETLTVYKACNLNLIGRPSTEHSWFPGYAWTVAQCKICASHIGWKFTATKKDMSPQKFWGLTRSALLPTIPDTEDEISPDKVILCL
Method: (§4) AURKA, AURKB and CRBN binding assays were performed by Eurofins Discovery using the KdELECT Kinase Assay Panel (AURKA and AURKB), or the E3scan Ligand Binding Assay Technology (CRBN). More information can be found on the Eurofins Discovery Web site.
(§5) Graphs were generated using GraphPad Prism Software (version 10.1.2) or RStudio (R-4.3.2). All dose–response curves were computed on GraphPad Prism using the Variable Slope (four parameters) equation. Absolute half-maximal degradation (DC50), growth inhibitory (GI50) and enzymatic inhibitory (IC50) concentrations, as well as inhibition constants (Ki) were derived from dose–response curves via interpolation. Statistical tests were performed on GraphPad Prism and detailed in the figure legends. Unless otherwise stated, “n” in the figure legends indicates the number of independent experiments conducted at different times.

Plasma stability assay = type: in vitro ADME, CD-1 mouse; details: for half-life at 1 μM: read-out: plasma t1/2
Method: (§6) Plasma and metabolic stability tests were performed by Eurofins Discovery. For the plasma stability assay, test compounds were incubated in CD-1 mouse plasma for 0, 0.5, 1, 1.5, and 2 h at 37 °C at a concentration of 1 μM. For the metabolic stability assay, test compounds were incubated at 37 °C in either (1) CD-1 mouse liver microsomes (MLM) (0.1 mg/mL) at a concentration of 0.1 μM for 0, 15, 30, 45, and 60 min or (2) CD-1 mouse hepatocytes (MH) (0.7 million viable cells/mL) at a concentration of 1 μM for 0, 0.5, 1, 1.5, and 2 h. At the respective time points, acetonitrile was added to the incubation mixture followed by centrifugation. Samples were analyzed by HPLC-MS/MS and peak areas were recorded for each analyte. Compound stability, expressed as the percentage of parent compound remaining, was calculated by comparing the peak area of the compound at each time point relative to that of the 0h time point. Percentage compound remaining is plotted as a function of time as a logarithmic curve. Half-life (t 1/2) is estimated from the slope of the initial linear range of the curve, assuming first-order kinetics. […] Both plasma and metabolic assay experiments were performed once with 2 replicate samples each.

[1] = Metabolic stability in mouse liver microsomes (MLM); type: in vitro ADME, CD-1 mouse; details: CD-1
Method: as §6

[2] = Metabolic stability in mouse hepatocytes (MH); type: in vitro ADME, CD-1 mouse; details: CD-1
Method: as §6

AURKA [3] = molecular target: T2, AURKA (Homo sapiens, UniProt O14965); experiment: AURKA degradation, Simple Western; type: cell-based; parameters: Representative Western blot showing levels of endogenous proteins MDR1, MYCN, AURKA, and CRBN in untreated cell lines; endogenous in cells; host or cells: NGP, IMR-32, SJNB-8, SK-N-BE(2)-C, SK-N-SH, SK-N-AS, SJNB-1, RPE, HEK293T; details: for pDC50: AURKA degradation; for DC50: read-out: AURKA DC50; for AURKA degradation (in words): IMR-32, 24h treatment;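 for AURKA Degradation 24h @1000nM: measured in NGP neuroblastoma cells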;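 for AURKA Degradation 24h @100nM: measured in NGP neuroblastoma cells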
T2 sequence (O14965 1-403): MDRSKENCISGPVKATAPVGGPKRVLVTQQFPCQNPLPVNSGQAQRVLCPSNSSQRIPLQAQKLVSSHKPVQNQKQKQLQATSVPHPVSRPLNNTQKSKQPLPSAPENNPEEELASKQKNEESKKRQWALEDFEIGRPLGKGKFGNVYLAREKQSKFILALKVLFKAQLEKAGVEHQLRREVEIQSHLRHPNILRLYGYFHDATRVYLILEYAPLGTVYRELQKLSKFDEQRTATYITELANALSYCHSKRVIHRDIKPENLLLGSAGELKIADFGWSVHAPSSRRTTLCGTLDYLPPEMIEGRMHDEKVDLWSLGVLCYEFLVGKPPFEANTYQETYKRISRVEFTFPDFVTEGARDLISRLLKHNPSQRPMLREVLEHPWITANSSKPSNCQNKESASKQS
Method: (§7) Cells were seeded in T-25 flasks at different densities ranging from 1 to 2 million cells per flask and allowed to adhere for 1–2 days. In experiments involving compound treatment, this was done by medium replacement containing the compound(s) of interest in their corresponding concentrations. In competition binding experiments, cells were first pretreated with an excess of MK-5108, thalidomide or MG-132 for 1 h by shaking gently at room temperature prior to addition of SK4454 or SK5527. All samples were normalized to contain the same percentage of DMSO as the negative DMSO controls. Cells were harvested on ice at their respective time points by scraping, washed with ice-cold PBS to collect remaining cells, and centrifuged (2500 rpm, 4 °C). A second washing and centrifugation step was performed prior to collection of the final cell pellets which were then snap-frozen in liquid nitrogen and kept frozen at −80 °C until further processing. Lysis of cell pellets occurred in cold RIPA buffer (0.5% w/v Sodium Deoxycholate, 150 mM NaCl, 50 mM TrisHCl pH 7.5, 0.1% w/v SDS, 1% w/v NP-40) supplemented with protease and phosphatase inhibitors (Roche, #11836145001, #04906845001) by rotating gently at 4 °C for 1h, followed by a centrifugation step for 10 min (10,000 rpm, 4 °C). The supernatant was collected and concentrations of the obtained protein lysates were measured using the Pierce BCA Protein Assay Kit (Thermo Fisher Scientific, #23227).
(§8) Simple Western analyses were performed with the Wes instrument (Bio-Techne) using the 12–230 kDa Wes Separation module and the EZ standard pack reagent 1 (Biotechne, #SM-W001, #PS-ST01EZ-8) following the manufacturer’s protocol. Protein lysates were loaded at 0.8 μg/μL under denaturing conditions (0.2 μg/μL for MYCN detection). Chemiluminescence peaks were generated by the Compass Software (Bio-Techne) and the area under the peaks calculated using the Gaussian fit method. Per lane, quantified data were always normalized to that of the loading control (Vinculin) prior to calculating fold changes relative to the negative DMSO control. Mean fold changes are calculated from 3 individual experiments. A list of the primary and secondary antibodies used can be found in the Supporting Information (Supplementary Table S7).
as §5

IMR-32 = experiment: IncuCyte live-cell imaging, antiproliferative effect; type: cell-based; details: Homo sapiens, IMR-32, 72 h; read-out: GI50
Text: as §1, §2, §3

MYCN = MYCN protein levels, Simple Western; type: cell-based, human; details: IMR-32
Method: as §7, §8, §5

AURKA [4] = molecular target: T2, AURKA; experiment: AURKA binding assay (KINOMEscan / KdELECT, Eurofins Discovery); parameters: purchased Eurofins Discovery
Method: as §4, §5

Structure (SMILES)	Ki (CRBN) [µM]	half-life at 1 μM (Plasma stability assay; CD-1 mouse plasma, 1 μM, 37 °C) [h]	plasma t1/2 (Plasma stability assay; plasma) [h]	microsomal CLint at 0.1 μM [1] [µL/min/mg]	hepatocyte CLint at 1 μM [2] [µL/min/1e6 cells]	AURKA Degradation 24h @100nM (AURKA [3])	AURKA Degradation 24h @1000nM (AURKA [3])	pDC50 (AURKA [3])	Dmax (AURKA [3]; NGP, 24 h treatment) [%]	DC50 (AURKA [3]; NGP, 24 h treatment) [µM]	DC50 (AURKA [3]) [µM]	half-life at 1 μM (Plasma stability assay; CD-1, mouse, plasma) [h]	AURKA binding (in words) (AURKA [4])	AURKA degradation (in words) (AURKA [3])	CRBN binding (in words) (CRBN)	GI50 (NGP; read-out: GI50 72h, 72h) [µM]	GI50 (NGP; read-out: pGI50 (converted)) [µM]	AURKA degradation activity (in words) (AURKA [3]; NGP, 24 h treatment)	GI50 (IMR-32) [µM]	MYCN destabilization (in words) (MYCN)
O=C1CCC(Nc2ccc(N3CCN(C4CN(C(=O)[C@]5(Cc6cccc(Nc7nccs7)n6)CC[C@@H](Oc6cccc(Cl)c6F)CC5)C4)CC3)nc2)C(=O)N1 (some centres unmarked) [PROTAC 20]	3.18	> 2	> 2	738	< 4.1	90	90	8,76	94	0.002	0.0017	–	–	–	–	0.019	0.0191	–	–	–
O=C1CCN(Cc2ccc(C3CCN(CC4CCN(C(=O)[C@]5(Cc6cccc(Nc7nccs7)n6)CC[C@@H](Oc6cccc(Cl)c6F)CC5)CC4)CC3)nc2)C(=O)N1 [PROTAC 21]	0.455	> 2	> 2	186	< 4.1	78	82	7,97	85	–	0.0108	–	–	–	–	0.046	0.0457	slightly reduced degradation potency compared to SK2188	–	–
O=C1CCN(c2ccc(N3CCN(CC4CCN(C(=O)[C@]5(Cc6cccc(Nc7nccs7)n6)CC[C@@H](Oc6cccc(Cl)c6F)CC5)C4)CC3)nc2)C(=O)N1 (some centres unmarked) [PROTAC 25]	–	–	–	426	13.6	90	87	8,47	–	–	0.0034	> 2	–	–	–	0.033	0.0324	–	–	–
O=C1CCN(c2ccc(C3CCN(C4CN(C(=O)[C@]5(Cc6cccc(Nc7nccs7)n6)CC[C@@H](Oc6cccc(Cl)c6F)CC5)C4)CC3)nc2)C(=O)N1 [PROTAC 28]	–	–	–	367	13	80	78	8,52	–	–	0.003	> 2	–	–	–	0.048	0.0479	–	–	–
Cc1cc(Nc2ccc(F)c(CC3(C(=O)N4CCC(F)(CN5CCC(c6ccc(N7CCC(=O)NC7=O)cn6)CC5)CC4)CCN(Cc4cccc(Cl)c4F)CC3)n2)n[nH]1 [PROTAC 37]	–	–	–	617	4.5	84	86	–	–	–	–	> 2	–	–	–	0.045	0.0447	–	–	–

Continued, in another order:

Ki (CRBN) [µM]	half-life at 1 μM (Plasma stability assay; CD-1 mouse plasma, 1 μM, 37 °C) [h]	plasma t1/2 (Plasma stability assay; plasma) [h]	microsomal CLint at 0.1 μM [1] [µL/min/mg]	hepatocyte CLint at 1 μM [2] [µL/min/1e6 cells]	AURKA Degradation 24h @100nM (AURKA [3])	AURKA Degradation 24h @1000nM (AURKA [3])	pDC50 (AURKA [3])	Dmax (AURKA [3]; NGP, 24 h treatment) [%]	DC50 (AURKA [3]; NGP, 24 h treatment) [µM]	DC50 (AURKA [3]) [µM]	half-life at 1 μM (Plasma stability assay; CD-1, mouse, plasma) [h]	AURKA binding (in words) (AURKA [4])	AURKA degradation (in words) (AURKA [3])	CRBN binding (in words) (CRBN)	Structure (SMILES)	GI50 (NGP; read-out: GI50 72h, 72h) [µM]	GI50 (NGP; read-out: pGI50 (converted)) [µM]	AURKA degradation activity (in words) (AURKA [3]; NGP, 24 h treatment)	GI50 (IMR-32) [µM]	MYCN destabilization (in words) (MYCN)
–	–	–	–	–	–	–	–	–	–	–	–	inability to bind	failed to degrade AURKA	–	Cc1cc(N(C)c2ccc(F)c(CC3(C(=O)N4CCC(F)(CN5CCN(c6ccc(N7CCC(=O)NC7=O)cn6)CC5)CC4)CCN(Cc4cccc(Cl)c4F)CC3)n2)n[nH]1 [SK5527-AURi]	–	–	–	~9	failed to destabilize MYCN
–	–	–	–	–	–	–	–	–	–	–	–	–	failed to degrade AURKA	inability to bind	Cc1cc(Nc2ccc(F)c(CC3(C(=O)N4CCC(F)(CN5CCN(c6ccc(N7CCC(=O)N(C)C7=O)cn6)CC5)CC4)CCN(Cc4cccc(Cl)c4F)CC3)n2)n[nH]1 [SK5527-CRBi]	–	–	–	~0.5	failed to destabilize MYCN
